Experimental data reported in patent US7790727B2, “Benzenesulfonanilide compounds suitable for treating disorders that respond to modulation of the serotonin 5-HT6 receptor” (Abbott GmbH & Co. KG, priority 2007, dated 2010).
Counter-ions that a name gives are not always drawn.

Molecular target: T1, h-5-HT6 receptor (Homo sapiens, UniProt P50406)
T1 construct: expressed in transfected cells
Test: 5-HT6 receptor binding assay (displacement of [3H]-LSD)
Conditions: not given
Description: Displacement of radioligands binding to the following cloned human receptors
1. Preparation of Membranes by Ultrasonic Treatment and Differential Centrifugation
Cells from stable clonal cell lines expressing the corresponding receptor (5-HT6, α1-adrenergic, dopamine D2 or histamine H1 receptors) were washed with PBS (w/o Ca^++, Mg^++) and harvested in PBS with 0.02% EDTA. The cells were collected by centrifugation at 500 g for 10 min. at 4° C., washed with PBS and centrifuged (500 g, 10 min. 4° C.). The pellets were stored at −80° C. until use. F or membrane preparation, the thawed cell pellet was resuspended in ice-cold sucrose buffer (0.25 M sucrose, 10 mM Hepes (pH 7.4), 1 mM Phenylmethylsulfonyl fluoride (PMSF) in DMSO, 5 μg/ml Pepstatin-A, 3 mM EDTA, 0.025% Bacitracin) and homogenized with a Branson Sonifier W-250 (Settings: Timer 4; Output Control 3; Duty Cycle constant; 2 to 3 cycles). Cell disruption was checked with the aid of a microscope. Remaining unbroken cells were pelleted at 1.000 g for 10 min. at 4° C. The sucrose buffer supernatant was then centrifuged at 60.000 g for 1 h at 4° C. (Beckman Ultrazentrifuge XL 80). The pellet was resuspended in 30 ml ice-cold Tris buffer (20 mM TRIS (pH 7.4), 5 μg/ml Pepstatin A, 0.1 mM PMSF, 3 mM EDTA) by pipetting through a 10 ml serological pipet and centrifuged for 1 h at 4° C. at 60.000 g. A final resuspension was performed in a small volume of ice-cold Tris buffer (see above) by pressing through a serological pipet followed by ultrasonic treatment with a Branson Sonifier W-250 (Settings: Timer 1; Output Control 3; Duty Cycle constant; 1 cycle). Protein concentration was determined (BCA-Kit; Pierce) and aliquots stored at −80° C. or in liquid nitrogen for long-term storage.
2. Receptor Binding Experiments
All receptor binding experiments were carried out in the corresponding assay buffer in a total volume of 200 μl in the presence of various concentrations of test compound (10^−5 M to 10^−9 M, tenfold serial dilution, duplicate determinations). The assays were terminated by filtration on polyethylenimine (PEI 0.1% or 0.3%) presoaked Packard Unifilter Plates (GF/C or GF/B) with a Tomtec Machill U 96 well-plate harvester. After the plates had been dried for 2 h at 55° C. in a drying chamber scin tillation cocktail (BetaPlate Scint; PerkinElmer) was added. Radioactivity was measured in a Microbeta Trilux two hours after the addition of the scintillation mixture. Data derived from liquid scintillation counting were analysed by iterative non-linear regression analysis with the use of the Statistical Analysis System (SAS): a program similar to “LIGAND” as described by Munson and Rodbard (Analytical Biochemistry 107, 220-239 (1980).
a) 5-HT6 Receptor Binding Assay
HEK293 cells stably expressing the h-5-HT6 receptor (NCBI Reference Sequence XM 001435) were cultured in RPMI1640 medium supplemented with 25 mM HEPES, 10% fetal calf serum and 1-2 mM glutamine. The membrane preparation was performed as described in section 1. […] Non-specific binding was defined with 1 μM methiothepin. The binding reaction was carried out for 3.5 h at room temperature. During the incubation, the plates were shaken on a plate shaker at 100 rpm and terminated by filtration on Packard Unifilter GF/C (0.1% PEI) plates, followed by 2 wash cycles with ice-cold 50 mM Tris-HCl, 5 mM CaCl2.
Data derived from liquid scintillation counting were analyzed by iterative non-linear regression analysis with the use of the Statistical Analysis System (SAS): a program similar to “LIGAND” as described by Munson and Rodbard (Anal. Biochem. 1980, 107, 220-239). Fitting was performed according to formulae described by Feldman (Anal. Biochem. 1972, 48, 317-338). IC50, nH and Ki values were expressed as geometrical mean.

T1 sequence (P50406 whole entry): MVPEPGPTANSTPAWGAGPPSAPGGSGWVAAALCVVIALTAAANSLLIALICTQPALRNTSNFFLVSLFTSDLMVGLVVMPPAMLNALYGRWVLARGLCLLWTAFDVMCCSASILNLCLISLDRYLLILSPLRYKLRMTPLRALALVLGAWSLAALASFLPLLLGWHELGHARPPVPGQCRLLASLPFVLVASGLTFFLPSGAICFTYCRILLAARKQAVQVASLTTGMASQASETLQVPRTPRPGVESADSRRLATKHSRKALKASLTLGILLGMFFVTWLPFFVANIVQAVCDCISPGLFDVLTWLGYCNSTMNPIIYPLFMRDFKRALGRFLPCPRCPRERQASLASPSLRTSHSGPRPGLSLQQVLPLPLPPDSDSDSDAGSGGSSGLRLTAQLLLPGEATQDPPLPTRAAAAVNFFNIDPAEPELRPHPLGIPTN

SMILES	Ki [nM]
O=S(=O)(Nc1cccc(N2CCNCC2)c1)c1ccccc1OC(F)F [Example 30, 2-Difluoromethoxy-N-(3-piperazin-1-yl-phenyl)-benzenesulfonamide Trifluoroacetate]	< 10
O=S(=O)(Nc1ccc(F)c(N2CCNCC2)c1)c1cccc(OC(F)F)c1 [Example 26, 3-Difluoromethoxy-N-(4-fluoro-3-piperazin-1-yl-phenyl)-benzenesulfonamide Hydrochloride]	< 50

Same assay, conditions: membranes of HEK293 cells expressing h-5-HT6 receptor, 1 nM [3H]-LSD; read-out: Ki(5HT6)

Ki [nM]	SMILES
< 50	O=S(=O)(Nc1cccc(N2CCNCC2)c1)c1cccc(OC(F)F)c1 [Example 28, 3-Difluoromethoxy-N-(3-piperazin-1-yl-phenyl)-benzenesulfonamide Hydrochloride]
< 10	CN1CCN(c2cc(NS(=O)(=O)c3cccc(OC(F)F)c3)ccc2OC(F)(F)F)CC1 [Example 20, 3-Difluoromethoxy-N-[3-(4-methyl-piperazin-1-yl)-4-trifluoromethoxy-phenyl]-benzenesulfonamide Hydrochloride]
< 50	O=S(=O)(Nc1ccc(F)c(N2CCNCC2)c1)c1cccc2c1OC(F)(F)O2 [Example 27, 2,2-Difluoro-benzo[1,3]dioxole-4-sulfonic acid (4-fluoro-3-piperazin-1-yl-phenyl)-amide Hydrochloride]
< 50	COc1ccc(N(C)S(=O)(=O)c2cccc3c2OC(F)(F)O3)cc1N1CCN(C)CC1 [Example 21, 2,2-Difluoro-benzo[1,3]dioxole-4-sulfonic acid [4-methoxy-3-(4-methyl-piperazin-1-yl)-phenyl]-methyl-amide Hydrochloride]
< 50	COc1cc(Cl)c(NS(=O)(=O)c2cccc(OC(F)F)c2)cc1N1CCNCC1 [Example 19, N-(2-Chloro-4-methoxy-5-piperazin-1-yl-phenyl)-3-difluoromethoxy-benzene-sulfonamide Trifluoroacetate]
< 10	CCN(c1ccc(OC)c(N2CCN(C)CC2)c1)S(=O)(=O)c1cccc(OC(F)F)c1 [Example 16, 3-Difluoromethoxy-N-ethyl-N-[4-methoxy-3-(4-methyl-piperazin-1-yl)-phenyl]-benzenesulfonamide Hydrochloride]
< 50	COc1ccc(N(C)S(=O)(=O)c2cccc3c2OC(F)(F)O3)cc1N1CCNCC1 [Example 23, 2,2-Difluoro-benzo[1,3]dioxole-4-sulfonic acid methyl-(4-methoxy-3-piperazin-1-yl-phenyl)-amide Hydrochloride]
< 50	COc1ccc(S(=O)(=O)Nc2cccc(N3CCNCC3)c2)cc1OC(F)F [Example 31, 3-Difluoromethoxy-4-methoxy-N-(3-piperazin-1-yl-phenyl)-benzenesulfonamide Trifluoroacetate]
< 50	COc1ccc(N(CCCF)S(=O)(=O)c2cccc(OC(F)F)c2)cc1N1CCNCC1 [Example 17, 3-Difluoromethoxy-N-(3-fluoropropyl)-N-(4-methoxy-3-piperazin-1-yl-phenyl)-benzenesulfonamide Hydrochloride]

More lines, now with the values behind:

SMILES	Ki [nM]
COc1ccc(NS(=O)(=O)c2cccc(OC(F)F)c2)cc1N1CCNCC1 [Example 1, 3-Difluoromethoxy-N-(4-methoxy-3-piperazin-1-yl-phenyl)-benzenesulfonamide Hydrochloride]	< 10
O=S(=O)(Nc1ccc(OC(F)F)c(N2CCNCC2)c1)c1ccccc1OC(F)F [Example 7, 2-Difluoromethoxy-N-(3-piperazin-1-yl-4-difluoromethoxy-phenyl)-benzenesulfonamide Trifluoroacetate]	< 50
COc1ccc(N(C)S(=O)(=O)c2cccc(OC(F)F)c2)cc1N1CCNCC1 [Example 2, 3-Difluoromethoxy-N-(4-methoxy-3-piperazin-1-yl-phenyl)-N-methyl-benzene-sulfonamide Hydrochloride]	< 20
COc1c(F)cc(NS(=O)(=O)c2cccc(OC(F)F)c2)cc1N1CCNCC1 [Example 9, 3-Difluoromethoxy-N-(3-fluoro-4-methoxy-5-piperazin-1-yl-phenyl)-benzenesulfonamide Hydrochloride]	< 50
